The target of test [1] is T1, 2′-deoxyribonucleoside kinase from Drosophila melanogaster (DmdNK) (Drosophila melanogaster, UniProt Q9XZT6).
T1 construct: made in house; host or cells: E. coli, pET-14b (Novagen)
T1 sequence (Q9XZT6 1-250): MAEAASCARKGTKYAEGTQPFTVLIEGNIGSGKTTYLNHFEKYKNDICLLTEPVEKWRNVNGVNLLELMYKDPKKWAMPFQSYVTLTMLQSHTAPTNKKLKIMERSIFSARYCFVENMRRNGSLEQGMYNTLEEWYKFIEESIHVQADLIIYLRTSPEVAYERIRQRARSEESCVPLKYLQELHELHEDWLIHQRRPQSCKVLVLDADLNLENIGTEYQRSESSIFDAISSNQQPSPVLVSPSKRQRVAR
The test can be described thus: spectrophotometric coupled-enzyme kinase assay, DmdNK. The format is biochemical. As to conditions: wild type DmdNK, kcat/KM data FIG. 10A/11A, agrees with FACS FIG. 11B. An excerpt: To investigate the kinetic properties of the above-described fNAs in vitro, a pET-based protein overexpression system was established for the production and purification of milligram quantities of individual dNKs. The genes for human 2′-deoxycytidine kinase (dCK) and fruitfly dNK (DmdNK), as well as the thymidine kinase from the bacterium Thermotoga maritime (TmTK) were subcloned into pET-14b (Novagen), an IPTG-inducible protein overexpression system that also introduces a poly-His tag at the target protein's amino terminus. Following protein overexpression, the tag enables one-step purification of the corresponding proteins on Ni-affinity resin, yielding enzyme of >95% purity as determined by SDS-PAGE. This protein overexpression system was successfully applied for the listed wild type kinases above, as well as for isolating engineered enzymes.
A quantitative measurement of individual enzymes' substrate specificity is possible via the determination of the kinetic parameters KM and kcat. Consistent with the literature, each kinase will be described by its relative activity for a fNA in comparison to its corresponding NA and thymidine: kcat(fNA)/kcat(NA), as well as by its relative catalytic efficiency: kcat/KM(fNA)/kcat/KM(NA). […]
(§1) Experimentally, the kinase-catalyzed phosphotransfer reaction was monitored at 37° C. via a spectrophotometric, couple-enzyme assay (as described in Munch-Petersen, B., Knecht, W., Lenz, C., Sondergaard, L. and Piskur, J. (2000) functional expression of a multisubstrate deoxyribonucleoside kinase from Drosophila melanogaster and its C-terminal deletion mutants. J Bio chem, 275, 6673-6679; Schelling, P., Folkers, G. and Schapozza, L. (2001) A spectrophotometric assay for quantitative determination of kcat of herpes simplex virus type 1 thymidine kinase substrates. Anal Biochem, 295, 82-87, which are hereby incorporated by reference herein). […] The consumption of NADH can be monitored spectrophotometrically at 340 nm. […]

Test [2] has as its target T2, human 2′-deoxycytidine kinase (dCK) (Homo sapiens, UniProt P27707).
T2 construct: made in house; host or cells: E. coli, pET-14b (Novagen)
Description: spectrophotometric coupled-enzyme kinase assay, dCK. As to conditions: FIG. 10A. Format: biochemical.
Text: (§2) To investigate the kinetic properties of the above-described fNAs in vitro, a pET-based protein overexpression system was established for the production and purification of milligram quantities of individual dNKs. The genes for human 2′-deoxycytidine kinase (dCK) and fruitfly dNK (DmdNK), as well as the thymidine kinase from the bacterium Thermotoga maritime (TmTK) were subcloned into pET-14b (Novagen), an IPTG-inducible protein overexpression system that also introduces a poly-His tag at the target protein's amino terminus. […]
A quantitative measurement of individual enzymes' substrate specificity is possible via the determination of the kinetic parameters KM and kcat. […]
as §1

The target in test [3] is T3, thymidine kinase from Thermotoga maritima (TmTK) (Thermotoga maritima, UniProt Q9WYN2).
T3 construct: made in house; host or cells: E. coli, pET-14b (Novagen)
The test can be described thus: kinetic experiments with type-II kinases. The format is biochemical.
Text: as §2, §1

In test [4] the test system is E. coli TOP10 and E. coli KY895. Description: fNA uptake by fluorescence microscopy, strains without exogenous kinase. The format is cell-based. Particulars: both strains, no exogenous type-I kinase. On the procedure: To validate the accumulation of the fluorescent nucleotides inside bacterial cells, a series of fNA-uptake experiments was conducted in two E. coli strains. The E. coli TOP10 (Invitrogen) carries a native type-II thymidine kinase while E. coli KY895 is a thymidine kinase-deficient laboratory strain.

Test [5] concerns E. coli KY895 with pDIM-tDmdNK and TOP10 with pBAD-tDmdNK. Description: fNA accumulation by fluorescence microscopy, bacteria expressing DmdNK. The format is cell-based. Particulars: plasmid-encoded exogenous DmdNK, both strains, FIG. 8. An excerpt: FIG. 8 illustrates the fluorescence microscopy of E. coli KY895 with pDIM-tDmdNK (left) and TOP10 with pBAD-tDmdNK (right) in the presence of 1 (100× magnification; excitation: Hg-lamp at 325 nm). Noticeable in the two images of FIG. 8 is the highly variable fluorescence intensity in the E. coli KY895/pDIM sample, caused by disproportionate expression levels of the lac-promoter system. On the contrary, the arabinose-controlled pBAD system in E. coli TOP10 facilitates steadier kinase expression levels, resulting in a more uniform fluorescence signal.

Test [6] concerns E. coli expressing DmdNK from pDIM, pBAD or pET vectors. Description: flow cytometry (FACS) of E. coli overexpressing DmdNK. The format is cell-based. As to conditions: pDIM vector in E. coli KY895, FIG. 9. On the procedure:
In a typical flow cytometry experiment, bacterial cultures are grown to mid-log phase and protein expression is induced for 4 h, followed by the addition of the fN or fNA to the culture broth. Cells are incubated for another 2 h prior to centrifugation and three wash-cycles with PBS buffer to reduce the fluorescence background. Cultures are then analyzed on a Becton Dickinson FACSVantage SE, equipped with a UV laser.
Several experiments were conducted to validate the design for a FACS-based high-throughput screening system for engineered dNKs. A first set of experiments addressed three main questions: a) what is an appropriate host/expression system for kinases in conjunction with fNAs (FIG. 9), b) are the fluorescent properties of the above-described fNAs sufficient for FACS, and c) what is the dynamic range of this screening system? […] In contrast, both the pET and pBAD system yield populations with a more significant portion of “positives”, cells with 10 to 20-fold higher fluorescence than background.
Background: Flow cytometry measures light scatter and fluorescence of single cells or particles in a stream.

T3 sequence (Q9WYN2 whole entry): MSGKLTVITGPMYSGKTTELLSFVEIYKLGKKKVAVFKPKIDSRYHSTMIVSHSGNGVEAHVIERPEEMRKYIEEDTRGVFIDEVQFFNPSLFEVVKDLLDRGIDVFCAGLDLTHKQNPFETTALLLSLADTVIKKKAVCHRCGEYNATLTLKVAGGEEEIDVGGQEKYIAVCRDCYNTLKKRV
T2 sequence (P27707 whole entry): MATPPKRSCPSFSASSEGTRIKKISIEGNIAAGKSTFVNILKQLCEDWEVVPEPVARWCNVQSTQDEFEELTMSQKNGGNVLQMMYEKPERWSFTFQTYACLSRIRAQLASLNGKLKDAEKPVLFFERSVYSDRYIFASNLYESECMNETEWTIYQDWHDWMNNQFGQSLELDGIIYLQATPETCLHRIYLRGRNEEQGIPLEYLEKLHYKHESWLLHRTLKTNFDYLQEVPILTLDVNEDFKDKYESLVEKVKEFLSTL

`Cc1cc2cn([C@H]3C[C@H](O)[C@@H](CO)O3)c(=O)nc2o1` [compound 1, 6-methyl-3-(β-D-2′-deoxyribofuranosyl)furano-[2,3-d]pyrimidin-2-one]: the “substrate activity / phosphorylation by DmdNK” value in test [1] is “strong activity and good substrate and good”. Further, in test [2], the “substrate activity / phosphorylation by dCK” value is recorded as “no activity”. The “phosphorylation by type-II kinases” value in test [3] is “no detectable phosphorylation”. Moreover, in test [4], the “fluorescence signal in cells” value is on record as “no fluorescence signal beyond the cellular autofluorescence”. In test [5], the “accumulation of fluorescent probe inside cells” value is given as “accumulation of the fluorescent probe inside both strains”. The fluorescent cell population result in test [6] is on record as “small subpopulation with fluorescence above background”.

`Cc1cc2cn(C3CC(N=[N+]=[N-])C(CO)O3)c(=O)nc2o1` (centres unmarked) [compound 16, 3-(4-azido-5-(hydroxymethyl)-tetrahydrofuran-2-yl)-6-methylfuro[2,3-d]pyrimidin-2(3H)-one]: the “substrate activity / phosphorylation by DmdNK” value in test [1] is reported as “only background phosphorylation”.

Consider `Cc1cc2cn(C3CCC(CO)O3)c(=O)nc2[nH]1` (centres unmarked) [compound 25, 3-(5-(hydroxymethyl)-tetrahydrofuran-2-yl)-6-methyl-3H-pyrrolo[2,3-d]pyrimidin-2(7H)-one], for which the “substrate activity / phosphorylation by DmdNK” value in test [1] was “no detectable activity”.

For the origin of these results see US20100112561A1, “FLUORESCENT NUCLEOSIDE ANALOGUES” (priority 2006, published 2010).
